Patent US11207252B2, “Synergistic preservative blends” (priority 2013, dated 2021)

Columns and labels:
[1] = tested on: mixed inoculum of Staphylococcus aureus ATCC 6538, Pseudomonas aeruginosa ATCC 9027 and Escherichia coli ATCC 8739; assay: Challenge test, bacteria, in unpreserved shampoo (Shampoo ULD); details: room temperature, Example 1 at 1% or its components at 0.06% sorbic acid, 0.2% benzyl alcohol, 0.37% 1,2-propanediol, 0.37% 1,4-butanediol
Procedure: A mixed inoculum containing approximately equal amounts of Staphylococcus aureus ATCC 6538, Pseudomonas aeruginosa ATCC 9027 and Escherichia coli ATCC 8739 was prepared according to the following procedure:
One colony of each bacteria strain was transferred from a stock culture to a tryptic soy agar plate which was incubated for 18-24 h at 37±2° C. Subsequently, some colonies of each of the thus-obtained cultures were transferred to a tryptic soy broth tube which was again incubated for 18-24 h at 37±2° C. to obtain a bacteria subculture, 200 μL of which were added to 2 mL of NaCl-peptone solution in a sterile plastic tube to obtain an inoculum containing approximately 10^9 cfu/mL of the respective bacterium. Finally, the mixed inoculum was prepared by mixing equal volumes of each inoculum.
For comparison purposes, additional 20 g samples were tested using equivalent amounts of each of the components of the preservative composition either alone or in two- or three-component combinations. Each sample was then inoculated with 200 μL of the mixed inoculum obtained in step A) and shaken vigorously to obtain a homogeneous contamination. The samples were then stored at room temperature and the bacteria count was determined in intervals of 7 days by taking 200 μL samples, mixing each of them with 1.8 mL of inactivation medium, and homogeneously plating 100 μL of the resulting mixtures on the surface of agar plates which were incubated for 2-3 days at 37±2° C. After the incubation period the colonies formed on the agar plates were counted and the results translated into cfu/mL. If necessary, serial dilutions in NaCl-peptone were prepared to cope with high bacteria counts.

[2] = tested on: mixed inoculum of Candida albicans ATCC 10231 and Aspergillus niger ATCC 16404; assay: Challenge test, fungi, in unpreserved shampoo pH 5.5 (Table 2); details: shampoo of Table 2, pH 5.5, Example 1 at 1% or its components at 0.06% sorbic acid, 0.2% benzyl alcohol, 0.37% 1,2-propanediol, 0.37% 1,4-butanediol

## C/C=C/C=C/C(=O)O [Sorbic Acid]
[1]; 7 days
  Mixed Bacteria Germ Count, 7 days: >10^4 cfu/g
[1]; 14 days
  Mixed Bacteria Germ Count, 14 days: >10^3 cfu/g
[1]; 21 days
  Mixed Bacteria Germ Count, 21 days: 6.7 × 10^2 cfu/g
[1]; 28 days
  Mixed Bacteria Germ Count, 28 days: 2.0 × 10^1 cfu/g
[2]; 7 days
  Mixed Fungi Germ Count, 7 days: >10^5 cfu/g
[2]; 14 days
  Mixed Fungi Germ Count, 14 days: >10^4 cfu/g
[2]; 21 days
  Mixed Fungi Germ Count, 21 days: >10^5 cfu/g
[2]; 28 days
  Mixed Fungi Germ Count, 28 days: >10^3 cfu/g
